In one assay the target is T1, recombinant Human CYP17 enzyme (17-20 lyase) (Homo sapiens, UniProt P05093).
T1 construct: made in house; host or cells: A549 cells, adenoviral expression system; purified cell membrane preparations
T1 sequence (P05093 1-508): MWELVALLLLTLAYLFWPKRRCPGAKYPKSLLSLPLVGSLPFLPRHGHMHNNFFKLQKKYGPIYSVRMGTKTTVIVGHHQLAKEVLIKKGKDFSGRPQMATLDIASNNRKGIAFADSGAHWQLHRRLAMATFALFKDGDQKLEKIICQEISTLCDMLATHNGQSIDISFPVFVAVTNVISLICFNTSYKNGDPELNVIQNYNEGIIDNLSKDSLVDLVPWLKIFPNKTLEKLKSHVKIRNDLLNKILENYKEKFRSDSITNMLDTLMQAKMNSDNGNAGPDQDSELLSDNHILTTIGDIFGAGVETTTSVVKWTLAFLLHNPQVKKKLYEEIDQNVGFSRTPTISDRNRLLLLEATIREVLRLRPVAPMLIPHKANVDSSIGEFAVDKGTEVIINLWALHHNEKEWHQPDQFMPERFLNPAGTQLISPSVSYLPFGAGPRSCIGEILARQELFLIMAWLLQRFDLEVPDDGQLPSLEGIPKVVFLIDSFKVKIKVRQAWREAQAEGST
The experiment in a line: Cytochrome P450, 17-20 lyase (CYP17-lyase) assay, 17-α-hydroxy pregnenolone [21-3H] as substrate. In kind it is biochemical. The conditions noted are these: at 10 μM; read-out: hCYP17 Lyase % Inh. The source says:
1) Cytochrome P450, 17-20 Lyase (CYP17-Lyase) Assay Development Using Recombinant Human CYP17 Enzyme and 17-α-Hydroxy Pregnenolone [21-3H] as the Substrate.
Cytochrome P450, 17-α-Hydroxylase, 17-20 lyase (CYP17) is a multi functional enzyme that plays a key role in the biosynthesis of steroid hormones. It catalyses both conventional hydroxylation and also the carbon-carbon bond cleavage reactions (Peter Lee-Robichaud et al, Biochem. J, (1997) 321, 857-63). In the hydroxylation reaction, it converts progesterone and pregnenolone to the corresponding hydroxylated products 17-α-hydroxy progesterone and 17-α-hydroxy pregnenolone. In the lyase reaction, it catalyzes the conversion of these hydroxylated substrates to Androstenedione and Dehydroepiandrosterone (DHEA) respectively. In the Cyp17 lyase assay described here, the conversion of 17-α-hydroxy pregnenolone to Dehydroepiandrosterone and acetic acid is being monitored.
Assay method was adopted from a published protocol with some modifications to suit our requirements (Dmitry N Grigoryev et al, Analytical Biochemistry, (1999) 267, 319-330). The conversion of 17-α-hydroxy pregnenolone to Dehydroepiandrosterone is accompanied by the release of acetic acid. In the Cyp17 lyase assay, 17-α-hydroxy pregnenolone labeled with tritium (3H) at position 21 is used as the substrate. Chloroform extraction removes the radioactive steroids and acetic acid is taken into aqueous layer. The tritiated acetic acid released in the assay thus extracted is quantified to determine the enzyme activity.
Initial buffer conditions were, 50 mM Phosphate buffer, pH 7.5 was used as the starting buffer for Cyp17 lyase activity based on the data published in US patent publication No. US2004/0198773 A1. […] Human Cyp 17 gene was cloned and expressed in Adenoviral expression system in A549 cell lines. The purified cell membrane preparations were used as the source for Human CYP17 enzyme. Total protein concentration: 8 mg/mL.
For routine screening, the assay was set up with 16 μg of enzyme in 50 μL reaction volume. 17α-hydroxy pregnenolone [21-3H] was added to a final concentration of 0.25 μM. NADPH is used at a final concentration of 4.2 mM. Total reaction volume was made up to 50 μL with 50 mM Phosphate buffer pH 7.5. The reaction mixture was incubated at room temperature for 90 minutes with gentle shaking. The reaction was stopped by the addition of 100 μL of buffer. 500 μL of 5% freshly prepared activated charcoal was added to the solution and mixed well by vortexing. The samples were centrifuged at 17568×g for 5 minutes. (14000 rpm). The supernatant was carefully transferred to fresh tube and 1.3 mL of scintillation fluid was added, mixed by vortexing.
The radioactivity was measured in a 1450 MicroBeta TriLux™ scintillation counter from Wallac-Perkin Elmer®, USA. The measurements were carried out in 2.0 mL Eppendorf™ tubes. Each tube was counted for 1 minute. The amount of tritiated acetic acid released is proportional to the lyase activity. Percent lyase activity in presence of inhibitor was calculated using the formula given below.
[formula] • Sample: Enzyme reaction in presence of inhibitor. • Positive control: Enzyme reaction without inhibitor but containing DMSO at 1% final concentration. • Blank—Contains all reagents except enzyme. • % Inhibition=100%−% Lyase activity
For IC50 determination, the % inhibition was plotted as a function of inhibitor concentration. The data was fitted to sigmoidal equation using Graphpad Prism® software IV to generate IC50 values.
In the case of `Cc1ccncc1N1CCc2ccsc2C1=O` [Example 5A, 6-(4-Methyl-pyridin-3-yl)-5,6-dihydro-4H-thieno[2,3-c]pyridin-7-one], the inhibition at 10 µM came to 91%. Still for that read-out and setting: then `O=C1c2sccc2CCN1c1cccnc1` [Example 6A, 6-Pyridin-3-yl-5,6-dihydro-4H-thieno[2,3-c]pyridin-7-one], with 48%; and `Cc1ccncc1N1CCc2sccc2C1=O` [Example 7A, 5-(4-Methyl-pyridin-3-yl)-6,7-dihydro-5H-thieno[3,2-a]pyridin-4-one], with 75%. With `O=C1c2ccsc2CCN1c1cccnc1` [Example 8A, 5-Pyridin-3-yl-6,7-dihydro-5H-thieno[3,2-c]pyridin-4-one], the inhibition at 10 µM worked out at 27%. Still for that read-out and setting: the same measure for `Cc1ccncc1N1CCc2c(Cl)cccc2C1=O` [Example 12A, 5-Chloro-2-(4-methyl-pyridin-3-yl)-3,4-dihydro-2H-isoquinolin-1-one]: 64%; for `Cc1ccncc1N1CCc2scc(-c3ccc(F)cc3)c2C1=O` [Example 15A, 3-(4-Fluoro-phenyl)-5-(4-methyl-pyridin-3-yl)-6,7-dihydro-5H-thieno[3,2-c]pyridin-4-one]: 35%.

On to `Cc1ccncc1N1CCc2c(cccc2C(F)(F)F)C1=O` [Example 22A, 2-(4-Methyl-pyridin-3-yl)-5-trifluoromethyl-3,4-dihydro-2H-isoquinolin-1-one], for which the inhibition at 10 µM amounted to 42%.

Turning to `Cc1ccncc1-n1ccc2ccc(NC(=O)C3CC3)cc2c1=O` [Example 24A, Cyclopropanecarboxylic acid [2-(4-methyl-pyridin-3-yl)-1-oxo-1,2-dihydro-isoquinolin-7-yl]-amide], the inhibition at 10 µM came to 53%. On to `Cc1ccncc1N1CCc2ccc(NC(=O)C3CC3)cc2C1=O` [Example 25A, Cyclopropanecarboxylic acid [2-(4-methyl-pyridin-3-yl)-1-oxo-1,2,3,4-tetrahydro-isoquinolin-7-yl]-amide], for which the inhibition at 10 µM was found to be 35%. Consider `Cc1ccncc1-n1ccc2ccc(C(F)(F)F)cc2c1=O` [Example 29A, 2-(4-Methyl-pyridin-3-yl)-7-trifluoromethyl-2H-isoquinolin-1-one], for which the inhibition at 10 µM was determined as 66%. Still for that read-out and setting: then `Cc1ccncc1N1CCc2ccc(Nc3ccccc3)cc2C1=O` [Example 30A, 2-(4-methylpyridin-3-yl)-7-(phenylamino)-3,4-dihydroisoquinolin-1(2H)-one], with 41%.

Staying with this assay, now noted: human CYP17 lyase; substrate 0.25 μM; room temperature, 90 minutes; read-out: Lyase IC 50 nM Human.
For the molecule `O=C1c2cc(Cl)ccc2CCN1c1cccnc1` [Example 1A, 7-Chloro-2-pyridin-3-yl-3,4-dihydro-2H-isoquinolin-1-one], the IC50 is 60 nM. Take `Cc1ccncc1N1CCc2ccc(Cl)cc2C1=O` [Example 2A, 7-Chloro-2-(4-methyl-pyridin-3-yl)-3,4-dihydro-2H-isoquinolin-1-one]: the IC50 worked out at 37 nM. Take `Cc1ccncc1N1CCc2ccc(-c3ccc(F)cc3)cc2C1=O` [Example 3A, 7-(4-Fluoro-phenyl)-2-(4-methyl-pyridin-3-yl)-3,4-dihydro-2H-isoquinolin-1-one]: the IC50 was found to be 1210 nM. Still for that read-out and setting: the same measure for `Cc1ccncc1N1CCc2ccc(C(F)(F)F)cc2C1=O` [Example 4A, 2-(4-Methyl-pyridin-3-yl)-7-trifluoromethyl-3,4-dihydro-2H-isoquinolin-1-one]: 5.5 nM; for `Cc1ccncc1N1CCc2sc3ccccc3c2C1=O` [Example 9A, 2-(4-Methyl-pyridin-3-yl)-3,4-dihydro-2H-benzo[4,5]thieno[3,2-c]pyridin-1-one]: 1.5 nM. As for `Cc1ccncc1N1CCc2ccc3ccccc3c2C1=O` [Example 10A, 2-(4-Methyl-pyridin-3-yl)-3,4-dihydro-2H-benzo[h]isoquinolin-1-one], the IC50 was 3.5 nM. The same measure, in the same setting: the same measure for `COc1ccc2c(c1)CCN(c1cnccc1C)C2=O` [Example 11A, 6-Methoxy-2-(4-methyl-pyridin-3-yl)-3,4-dihydro-2H-isoquinolin-1-one]: 214 nM; for `Cc1ccncc1N1CCc2cc(O)ccc2C1=O` [Example 11B, 6-Hydroxy-2-(4-methyl-pyridin-3-yl)-3,4-dihydro-2H-isoquinolin-1-one]: 139 nM; for `COc1cccc2c1CCN(c1cnccc1C)C2=O` [Example 13A, 5-Methoxy-2-(4-methyl-pyridin-3-yl)-3,4-dihydro-2H-isoquinolin-1-one]: 917 nM. For the molecule `Cc1ccncc1N1CCc2sc(-c3ccc(F)cc3)cc2C1=O` [Example 14A, 2-(4-Fluoro-phenyl)-5-(4-methyl-pyridin-3-yl)-6,7-dihydro-5H-thieno[3,2-c]pyridin-4-one], the IC50 was 755 nM. On to `O=C1c2cc(C(F)(F)F)ccc2CCN1c1cccnc1` [Example 16A, 2-Pyridin-3-yl-7-trifluoromethyl-3,4-dihydro-2H-isoquinolin-1-one], for which the IC50 stood at 175 nM. On to `Cc1ccncc1N1CCc2cc(C(F)(F)F)ccc2C1=O` [Example 17A, 2-(4-Methyl-pyridin-3-yl)-6-trifluoromethyl-3,4-dihydro-2H-Isoquinolin-1-one], for which the IC50 is 95 nM. As for `O=C1c2cc(C(F)(F)F)ccc2CCN1c1cncc(F)c1` [Example 18A, 2-(5-Fluoro-pyridin-3-yl)-7-trifluoromethyl-3,4-dihydro-2H-isoquinolin-1-one], the IC50 worked out at 334 nM. `O=C1c2cc(C(F)(F)F)ccc2CCN1c1cncc2ccccc12` [Example 19A, 7-Trifluoromethyl-3,4-dihydro-[2,4′]biisoquinolinyl-1-one]: the IC50 amounted to 44 nM. The same measure, in the same setting: then `Cc1ccncc1N1CC(C)(C)c2ccc(C(F)(F)F)cc2C1=O` [Example 20A, 4,4-Dimethyl-2-(4-methyl-pyridin-3-yl)-7-trifluoromethyl-3,4-dihydro-2H-isoquinolin-1-one], with 369 nM. Consider `O=C1c2cc(C(F)(F)F)ccc2CCN1c1cnccc1C(F)(F)F` [Example 21A, 7-Trifluoromethyl-2-(4-trifluoromethyl-pyridin-3-yl)-3,4-dihydro-2H-isoquinolin-1-one], for which the IC50 is 56 nM.

`Cc1ccncc1N1CCc2ccccc2C1=O` [Example 23A, 2-(4-Methyl-pyridin-3-yl)-3,4-dihydro-2H-isoquinolin-1-one]: the IC50 was found to be 227 nM. `COc1ccc2c(c1)C(=O)N(c1cnccc1C)CC2` [Example 26A, 7-Methoxy-2-(4-methyl-pyridin-3-yl)-3,4-dihydro-2H-isoquinolin-1-one]: the IC50 is 17 nM.

As for `Cc1ccncc1N1CCc2ccc(O)cc2C1=O` [Example 27A, 7-Hydroxy-2-(4-methyl-pyridin-3-yl)-3,4-dihydro-2H-isoquinolin-1-one], the IC50 came to 83 nM. On the same count and under the same terms, then `CCn1ccc2c1C(=O)N(c1cnccc1C)CC2` [Example 28A, 1-Ethyl-6-(4-methyl-pyridin-3-yl)-1,4,5,6-tetrahydro-pyrrolo[2,3-c]pyridin-7-one], with 70 nM.

Values taken from patent publication US8946260B2, “17α-hydroxylase/C17,20-lyase inhibitors” (Novartis AG, priority 2010, dated 2015).
